64 compounds from a melting point compilation (Tetko et al.; mined from patent text by program, amines drawn as free bases though some values may be those of a salt) can be followed below.

The structures appear in SMILES notation.

With `COc1ccc(CCCCNC(=O)CCl)cc1OC`, the melting point – broadly, the temperature, or range, at which the solid turns liquid – was 94 to 95 °C.

Regarding `CC(C)CCCC(C)C1C(O)CC2C3=CC=C4C(C)(C)C(O)CCC4(C)C3CCC21C` (centres undefined), the melting point fell in the range of 171 to 173 °C.

With `O=[N+]([O-])c1cc(C(c2ccc(O)c([N+](=O)[O-])c2)(C(F)(F)F)C(F)(F)F)ccc1O`, the melting point lay in the range of 119 to 122 °C.

For the compound `COC(=O)c1ccc(S(C)(=O)=O)c(-c2cc(C(C)C)no2)c1`, the melting point lay within 102 to 104 °C.

Compound `CC(C)(C)OC(=O)N(C(=N)NS(=O)(=O)C(F)(F)F)C(=O)OC(C)(C)C` came in with a melting point of 114 to 115 °C.

`C=Cc1cc2c(Cl)cc(F)c(-n3c(=O)cc(C(F)(F)F)n(C)c3=O)c2o1` registered a melting point of 108 to 109 °C.

`CN1C(=O)CN=C(c2ccccc2F)c2cc(NC(=O)NCCO)ccc21` gave a melting point of 156 to 160 °C.

`CCC(O)c1cccc(S(N)(=O)=O)c1` (centres undefined) gave a melting point of 218 to 220 °C.

The compound `Nc1c(F)cc(I)cc1Cl` had a melting point of 85 to 87 °C.

On to `CN1CCc2cccc3c4c(n(c23)CC1)CCSC4`, for which the melting point lay within 123 to 125 °C.

Regarding `OC1(Cn2cncn2)C(Cc2ccc(F)cc2)CCC12CC2` (centres undefined), the melting point lay in the range of 89 to 90 °C.

`CC(C)(C)NS(=O)(=O)c1c(S)cccc1C(F)(F)F` showed a melting point of 139 °C.

In the case of `O=C(O)COc1ccc(C(=NO)c2cccs2)c2ccccc12`, the melting point is 215 °C.

In the case of `FC(F)(F)c1cccc(N2CCN(c3ccc(I)nn3)CC2)c1`, the melting point was 145 °C.

The compound `Cc1c(-c2ccc(C#N)cc2)n[nH]c1C(=O)O` registered a melting point of 260 °C.

In turn, `CC1Oc2ccc(CN3CCN(c4ccc(Cl)cn4)CC3)cc2NC1=O` (centres undefined) had a melting point of 197 to 198 °C.

Regarding `COCCc1sc2ncnc(N)c2c1-c1ccc(NC(=O)Nc2cc(C(F)(F)F)ccc2F)cc1`, the melting point is 209 to 211 °C.

`CCc1ccc2c(c1)C=Cc1cc(C)ccc1C2c1cn(-c2ccnc(N3CCCC3C(=O)O)n2)c(=O)[nH]c1=O` (centres undefined) yielded a melting point of 185 °C.

`C[C@H](c1ccccc1)n1c(=O)[nH]c2cc(Cl)cc(Cl)c2c1=O`: the melting point was in the range of 205 to 210 °C.

`CCN(CCO)Cc1cc(Nc2nc(Nc3ccc4c(c3OC)CCC(N3CCOCC3)CC4)ncc2Cl)ccc1F` (centres undefined) returned a melting point of 81 to 83 °C.

In turn, `c1ccc(-c2cc(CCC3CCNC3)c3ccccc3n2)cc1` (centres undefined) came in with a melting point of 140 °C.

In turn, `CC1=C(C#N)C(c2cccc3ncc(-c4ccccc4)cc23)C(C(=O)OC(C)C)=C(N)N1` (centres undefined) registered a melting point of 227 to 229 °C.

For `COCC(C)N(C)Cc1c(-c2ccc(NC(=O)NOC)cc2)sc2c1c(=O)n(-c1ccccc1)c(=O)n2Cc1c(F)cccc1F` (centres undefined), the melting point lay within 154 to 155 °C.

In the case of `OC1CCN(Cc2ccc(Br)cn2)CC1`, the melting point fell in the range of 52 to 54 °C.

Regarding `O=C(O)CC1c2cc(C(F)(F)F)ccc2C(=O)N1CC(F)(F)F` (racemic), the melting point lay within 202 to 204 °C.

On to `Cc1nc(CCl)c(Br)s1`, for which the melting point was 154 to 156 °C.

As for `CC(C)(O)C1(c2onc(-c3ccc(O)cc3)c2-c2ccccc2)CC1`, the melting point was in the range of 212 to 213 °C.

Compound `ClC1(NC2(Cc3ccncc3)NN=Cc3ccncc32)C=CC=CC1` (centres undefined) returned a melting point of 220 to 221 °C.

For the compound `OCCCCCCOc1ccc(-c2ccccc2)cc1`, the melting point lay in the range of 92 to 94 °C.

In turn, `O=C1NC(=O)C(n2cnc3ccccc32)=C1c1c[nH]c2ccccc12` yielded a melting point of 310 to 320 °C.

Compound `Oc1ccc2c(c1)OCC1c3ccccc3OC21` (centres undefined) had a melting point of 148 to 152 °C.

On to `CCS(=O)(=O)CCOc1cc(C)c(-c2cccc(COc3ccc(CCC(=O)O)c(F)c3)c2)c(C)c1`, for which the melting point lay within 126 to 127 °C.

Compound `CC(C)(C)c1cc(O)n[nH]1` registered a melting point of 205 to 206 °C.

Consider `CCOC(=O)NC(C)C(=O)c1ccc(O)c(Cl)c1` (centres undefined), for which the melting point lay within 106 to 108 °C.

In turn, `COc1cc(OC)nc(Oc2cccc(Cl)c2NS(C)(=O)=O)n1` had a melting point of 147 to 148 °C.

`CC(=O)OS(=O)(=O)c1ccc(C)cc1` gave a melting point of 56 to 60 °C.

Turning to `CCOCCNc1nc(Cl)nc(Cl)n1`, the melting point came out at 77 °C.

For the compound `O=C(O)CC(=O)OCC(Cl)(Cl)Cl`, the melting point is 42 to 43 °C.

Compound `CN(C)c1nc2sc3c(NCc4cccnc4)ncnc3c2c2c1CCC(C)(C)C2` yielded a melting point of 208 to 209 °C.

In turn, `CCOc1ccc2c(c1)C(c1ccccc1)C(=O)N2` (centres undefined) yielded a melting point of 125 to 130 °C.

For the compound `CC(COc1ccc(Oc2ccccc2)cc1)=NO`, the melting point lay within 59 to 61 °C.

Turning to `O=C(O)C=Cc1ccc(/C=C/c2ccncc2)cc1`, the melting point was greater than 300 °C.

With `CC(=O)Nc1ccc(C(=O)CCC(=O)O)cc1Cl`, the melting point was in the range of 168 to 170 °C.

In turn, `COC(=O)c1ccc(OCCNC(=O)C2Cc3ccccc3N2S(=O)(=O)c2ccc(-c3cccc(C(F)(F)F)c3)cc2)c(F)c1` (centres undefined) gave a melting point of 65 to 70 °C.

Regarding `CC12CCC3c4ccc(C(=O)O)cc4CCC3C1CCC2C(=O)c1cccc2ccccc12` (centres undefined), the melting point is 228 °C.

`O=[N+]([O-])c1ccc(-c2ncnn2-c2ccccc2F)cc1` gave a melting point of 143 to 145 °C.

The compound `COc1ccc2cc(S(N)(=O)=O)[nH]c2c1` had a melting point of 171 to 172 °C.

As to `CC(C)Cn1c(C(=O)OC(C)(C)C)c(O)c2cc(OCc3ccccc3)ccc2c1=O`, the melting point is 133 to 134 °C.

In turn, `Cc1nnc(COc2ccc(OCC(C)Oc3ccccn3)cc2)s1` (centres undefined) gave a melting point of 72 to 78 °C.

`Cc1cc(C)cc(S(=O)(=O)n2c(CCCC(=O)O)cc3nc(Cl)ccc32)c1` displayed a melting point of 200 °C.

Compound `CC(C)C(=O)CNC(=O)c1ccc(Cl)cc1` displayed a melting point of 118 to 119 °C.

Compound `CC(C)[C@H](NC(=O)N(C)Cc1csc(N)n1)C(=O)N[C@@H](Cc1ccccc1)[C@H](O)[C@H](O)[C@H](Cc1ccccc1)NC(=O)OC(C)(C)C` came in with a melting point of 103 to 107 °C.

For `CCCCCCCCCCCCCCCCCNC(=O)OCCSCCOC(=O)NCc1ccccn1`, the melting point was in the range of 73 to 74 °C.

As to `CC(C)(C)c1ccc(CC[C@H](CC2CCCCC2)O[Si](C)(C)C(C)(C)C)cc1NC(=O)CC1c2ccccc2Oc2ccccc21`, the melting point lay in the range of 173 to 174 °C.

Compound `CCC(CC)(CC(=O)O)C(=O)O` had a melting point of 106 to 109 °C.

`CC(C)Cn1c(CNC(=O)OC(C)(C)C)c(-c2ccccc2)c2cc(/C=C/C(=O)O)ccc2c1=O` came in with a melting point of 172 to 173 °C.

`COc1ccc(C(C#N)Cc2cc(OC)c(OC)c(OC)c2)cc1` (centres undefined): the melting point lay within 102 to 103 °C.

Turning to `CCN(C)c1ccc(C(=O)c2ccc(N(C)CC)cc2)cc1`, the melting point was in the range of 122 to 124 °C.

In the case of `CCCCc1c(-c2cccnn2)ssc1=S`, the melting point amounted to 94 °C.

As for `Cc1ccc(S(=O)(=O)n2c(-c3cn(C)c4ccc(-c5ccncc5)cc34)cc3cccnc32)cc1`, the melting point fell in the range of 82 to 85 °C.

For `CNc1nc2ccc(OC(F)(F)F)cc2s1`, the melting point worked out at 162 °C.

Take `CCCCc1nc2cc3ccccc3cc2n1Cc1ccc(C#N)cc1`: the melting point was 138 °C.

Regarding `CC(C)(C)c1ccc(C(=O)Nc2cn3cc(-c4ccsc4)ccc3n2)cc1`, the melting point was 261 to 263 °C.

The compound `N#CCCCOc1ccc(C(=O)O)cc1` had a melting point of 193 to 194 °C.
